Laboratory results as given in patent publication US20160000762A1, “IMPROVING COGNITIVE FUNCTION” (THE REGENTS OF THE UNIVERSITY OF CALIFORNIA, priority 2013, published 2016).

Key:
dendritic spines = assay: Golgi staining, dendritic spines of APP knockout mice; format: in vivo; conditions: hippocampal CA1 neurons; 30 mg/kg, 2 weeks
Description: Animals. Wild-type C57BL/6J and APP knockout mice (B6.12957-APPtm1Dbo/J) were obtained from Jackson Laboratories (Bar Harbor, Me., USA). CD1 mice were obtained from Vivasource. All animal experiments were approved by the Institutional Animal Care and Use Committees at Georgetown University and Johns Hopkins University. All animals were maintained according to protocols approved by the Animal Welfare and Use Committee at both institutes.
Golgi staining and morphological analysis of dendritic spines. To analyze dendritic spine density and morphology in brain, FD RAPID GOLGISTAIN KIT™ (FD NeuroTechnologies, Ellicott City, Md., USA) was used. Dissected mouse brains were immersed in Solution A and B for 2 weeks in dark conditions at room temperature and transferred into Solution C for 24 h at 4° C. Brains were sliced using a VT1000S Vibratome (Leica, Bannockburn, Ill., USA) at 150 μm thickness. Dendritic images were acquired by Axioplan 2 (Zeiss, Oberkochen, Germany) under brightfield microscopy. Spine width, length, and linear density of cortical layers II/III and CA1 of hippocampus were measured using Scion image software (Scion Corporation, Frederick, Md., USA). Images were coded, and dendritic spines counted in a blinded manner. Spines from 0.2 to 2 μm in length were included for analysis. All morphological analysis was done blind to experimental conditions. […]

APP = target: T1, APP (Rattus norvegicus, UniProt P08592); assay: Cell surface biotinylation, primary cortical neurons; format: cell-based; conditions: 5 μM, 24 h
T1 construct: BTA-EG4 increased endogenous cell surface APP levels in primary cortical neurons; endogenous in cells; host or cells: primary cortical neurons
Method: Cell surface biotinylation. COS7 cells were transiently transfected with APP for 24 hr in OPTI-MEM® containing 10% fetal bovine serum, and then treated with BTA-EG4 or control for 24 hr. After 24 hr, surface proteins were biotin labeled, immobilized with NeutrAvidin™ Gel and incubated 1 h with SDS-PAGE sample buffer, including 50 mM DTT, as described previously (Minami et al., 2010). Eluates were analyzed for APP by immunoblotting.
It is well known that the majority of a-secretase activity occurs on the cell surface, while β- and γ-secretase activity occurs primarily in the early and late endosomes (Huse et al., 2000; Reiss et al., 2006). Thus, if APP is present at the cell's surface, it is preferentially cleaved by α-secretase, resulting in decreased Aβ production. Therefore, we examined whether BTA-EG4 regulates cell surface expression of APP. To test this initially, COS7 cells were transfected with human APP and treated with BTA-EG4 (5 μM) or control (10% DMSO) for 24 h. […] Furthermore, BTA-EG4 increased endogenous cell surface APP levels in primary cortical neurons following 24 h of BTA-EG4 (5 μM) treatment compared with control (10% DMSO) treatment (FIG. 1I). In an alternative approach to examine the effect of BTA-EG4 on cell surface APP expression, we conducted live cell-surface immunostaining in primary hippocampal neurons.

[1] = Morris Water Maze, 3× Tg AD mice; format: in vivo; conditions: for escape latency during training trials: 30 mg/kg daily, 2 weeks
Method: Morris Water Maze. To examine the effects of BTA-EG4 on learning and memory, we injected 2-3 month old, 6-10 month old, and 13-16 month old 3× Tg AD mice daily (i.p.) for 2 weeks before beginning behavioral testing as described previously (Minami et al., 2012). The control groupw as treated with vehicle solution (10% DMSO) while the experimental group was treated with BTA-EG4 (30 mg/kg) daily for 2 weeks. Animals were kept on a fixed 12 hour light-dark cycle, and behavioral experiments were conducted during the light portion of this cycle. Specifically, experiments began at 9:30 AM and concluded before 4:00 PM. Briefly, the amount of time required for animals to locate a Plexiglas platform submerged in opaque water was measured in a large circular pool. The animal was randomly placed into one of four quadrants separated by 90°, and the platform was hidden in one of these quadrants (14 in. from the wall). TOPSCAN software tracked the time required (latency, limited to 60 s) to locate the hidden platform, and animals failing to locate the platform within 60 s were gently guided to the platform. On the first trial, animals were allowed to remain on the platform for 15 s. All subsequent trials limited platform time to 10 s, and a probe trial (60 s) was administered 24 h after the final learning trial. Time spent in the quadrant where the platform was previously located and number of platform crossings were recorded during this probe trial. As a control, 12 h after the last trial, animals were required to locate a clearly visible black platform placed in a new location.

T1 sequence (P08592 18-770): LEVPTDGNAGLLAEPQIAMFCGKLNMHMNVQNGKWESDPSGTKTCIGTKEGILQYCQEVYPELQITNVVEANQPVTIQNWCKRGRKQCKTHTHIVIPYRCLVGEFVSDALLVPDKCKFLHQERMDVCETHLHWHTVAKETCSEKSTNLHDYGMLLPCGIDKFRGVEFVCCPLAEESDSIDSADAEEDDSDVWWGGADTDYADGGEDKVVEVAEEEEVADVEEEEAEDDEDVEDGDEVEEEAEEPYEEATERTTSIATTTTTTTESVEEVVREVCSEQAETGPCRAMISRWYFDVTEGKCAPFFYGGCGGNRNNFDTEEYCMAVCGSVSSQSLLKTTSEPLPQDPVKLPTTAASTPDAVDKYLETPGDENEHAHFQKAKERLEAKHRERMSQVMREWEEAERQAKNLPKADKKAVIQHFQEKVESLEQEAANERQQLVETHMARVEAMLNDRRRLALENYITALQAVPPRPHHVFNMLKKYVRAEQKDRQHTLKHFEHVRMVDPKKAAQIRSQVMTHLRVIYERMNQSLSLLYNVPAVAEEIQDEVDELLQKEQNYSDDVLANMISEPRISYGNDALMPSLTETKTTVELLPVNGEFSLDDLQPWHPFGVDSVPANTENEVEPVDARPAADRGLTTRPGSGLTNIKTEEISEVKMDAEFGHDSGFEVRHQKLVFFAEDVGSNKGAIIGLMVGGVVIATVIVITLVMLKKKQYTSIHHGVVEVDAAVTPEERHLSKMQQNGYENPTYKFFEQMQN

## BTA-EG4
Dendritic spines
  dendritic spine density: did not find a statistically significant increase
APP
  endogenous cell surface APP levels: increased
[1]; 2-3 months
  swim speed: without differing
  escape latency during training trials: significantly faster
[1]; 2-3 months, probe trials
  percentage of time in the target quadrant: greater percentage
  platform crossings: more platform crossings
[1]; 6-10 months
  escape latency during training trials: faster
[1]; 6-10 months, probe trials
  number of platform crossings: without changes
  percentage of time spent in the target quadrant: significantly improved
[1]; 13-16 months
  measured Morris Water Maze parameters (escape latency, swim speed, target quadrant time, platform crossings): none of the measured parameters were significantly altered
